Assay results: US20230123334A1, “AMINO LIPID COMPOUND, PREPARATION METHOD THEREFOR, AND APPLICATION THEREOF” (SHENZHEN SHENXIN BIOTECHNOLOGY CO., LTD., priority 2020, published 2023)

Experiments:
HEK293 cells [1] = assay: Preliminary screening as DNA vectors, GFP transfection of HEK293 cells; assay type: cell-based; details: HEK293 cells; lipid/DOPE liposome with 75 ng plasmid DNA (psin-EGFP-IRES-Puro); number of cells expressing GFP divided by total number of nuclei (Hoechst)
Outline: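 Lipid + DOPE liposomes (NaOAc, pH 5.6) complexed w/ 75 ng psin-EGFP-IRES-Puro, 30 min RT; added to 3-5×10^4 HEK293/well, 37° C. Hoechst 0.2 μg/mL at 20-24 h, imaged after further 20-24 h. Efficiency = GFP+ cells / total nuclei.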

HEK293 cells [2] = assay: Preliminary screening as mRNA vectors, EGFP mRNA transfection of HEK293 cells; assay type: cell-based; details: HEK293 cells, 96-well plates, EGFP mRNA 50 ng per well; percentage of GFP fluorescent cells relative to total number of cells (Hoechst)
Outline: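 Each well of HEK293 cells received 50 ng of EGFP mRNA. Efficiency was expressed as percent GFP-expressing cells over Hoechst-defined total cell number.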

Compound | Absolute DNA transfection efficiency in HEK293 cells (HEK293 cells [1]) | Absolute mRNA transfection efficiency in HEK293 cells (HEK293 cells [2])
CCCCCCCCNc1nc(NCCCCCCC)nc(NCCN2CCOCC2)n1 [Compound N7N8D2] | 0.0% | 0.3%
CCCCCCCCCCCCCCCCNc1nc(NCCCCCCCCCCCCC)nc(NCCN(C)C)n1 [Compound N13N16D1] | 0.8% | 1.5%
CCCCCCCCCCCCSc1nc(NCCN2CCN(C)CC2)nc(SCCCCCCCCCCC)n1 [Compound S11S12D5] | 2.8% | 9.2%
CCCCCCCCCCCCCNc1nc(NCCCCCC)nc(NCCN(CC)CC)n1 [Compound N6N13D7] | 0.1% | 0.9%
CCCCCCCCCCCCCCCCSc1nc(NCCN2CCN(C)CC2)nc(SCCCCCCCCCCC)n1 [Compound S11S16D5] | 4.9% | 5.1%
CCCCCCCCCCCCCCCCCCSc1nc(NCCN2CCCC2)nc(SCCCCCCCCC)n1 [Compound S9S18D3] | 13.9% | 35.8%
CCCCCCCCCCCCCNc1nc(NCCCCCC)nc(NCCCN2CCOCC2)n1 [Compound N6N13D8] | 0.0% | 0.0%
CCCCCCCCCCCCCCCSc1nc(NCCN(C)C)nc(SCCCCCCCCCCCCCC)n1 [Compound S14S15D1] | 0.1% | 0.0%
CCCCCCCCCCCCCCCNc1nc(NCCCCCCCCCCCCC)nc(NCC2CCN(C)CC2)n1 [Compound N13N15D10] | 0.0% | 0.4%
CCCCCCCNc1nc(NCCCCCC)nc(NCC2CCN(C)CC2)n1 [Compound N6N7D10] | 0.0% | 0.0%
CCCCCCCCCCCCCCCCCCNc1nc(NCCCCCCCCCCCCCCCC)nc(NCCN(C)C)n1 [Compound N16N18D1] | 1.2% | 0.0%
CCCCCCCCCCCCCCCCNc1nc(NCCCCCCCC)nc(NCCN2CCN(C)CC2)n1 [Compound N8N16D5] | 0.2% | 0.3%
CCCCCCCCCCCCCCCNc1nc(NCCCCCCCCCCCCC)nc(NCCCN2CCN(C)CC2)n1 [Compound N13N15D9] | 0.2% | 0.5%
CCCCCCCCCCCCCCCSc1nc(NCCCN(C)C)nc(SCCCCCCCCCCCC)n1 [Compound S12S15D6] | 4.4% | 0.0%
CCCCCCCCCCCCCCCCCCSc1nc(NCC2CCN(C)CC2)nc(SCCCCCCCCCCCC)n1 [Compound S12S18D10] | 7.5% | 7.7%
CCCCCCCCCCCNc1nc(NCCCCCCCCCCC)nc(NCCN(CC)CC)n1 [Compound N11N11D7] | 0.6% | 5.5%
CCCCCCCCCCCCCCCCCCSc1nc(NCC2CCN(C)CC2)nc(SCCCCCCCCC)n1 [Compound S9S18D10] | 7.0% | 43.6%
CCCCCCCCCNc1nc(NCCCCCC)nc(NCCN2CCOCC2)n1 [Compound N6N9D2] | 0.0% | 0.0%
CCCCCCCCCNc1nc(NCCCCCCCC)nc(NCCN2CCCC2)n1 [Compound N8N9D3] | 0.5% | 0.5%
CCCCCCCCCCCNc1nc(NCCCCCCC)nc(NCCN(C)C)n1 [Compound N7N11D1] | 1.3% | 0.0%
CCCCCCCCCCCCCNc1nc(NCCCCCCCCC)nc(NCC2CCN(C)CC2)n1 [Compound N9N13D10] | 0.3% | 2.8%
CCCCCCCCCCCCCCCCCCNc1nc(NCCCCCCCCCCCCCCCCCC)nc(NCCN2CCN(C)CC2)n1 [Compound N18N18D5] | 1.1% | 0.0%
CCCCCCCCCCCCCCSc1nc(NCC2CCN(C)CC2)nc(SCCCCCCCCCCCC)n1 [Compound S12S14D10] | 6.5% | 30.4%
